# According to patent US7569549B2, “Isostructural pseudopolymorphs of 9-deoxo-9a-aza-9a-methyl-9a-homoerythromycin A” (Pliva Hrvatska D.O.O., priority 2002, dated 2009):
# Key:
# [1] = Dissolution profiles by USP Method 2 (PharmaTest Dissolution Tester), dissolved content by HPLC; format: physicochemical
# Protocol: The comparative dissolution profiles were determined by USP Method 2, PharmaTest Dissolution Tester, PTW SII; the content of dissolved 9-deoxo-9a-aza-9a-methyl-9a-homoerythromycin A was measured by HPLC. The data thus obtained are set forth in Table 6 below, and plotted in FIGS. 17 and 18.
# The comparative dissolution profiles were determined by USP Method 2, PharmaTest Dissolution Tester, PTW SII; the content of dissolved 9-deoxo-9a-aza-9a-methyl-9a-homoerythromycin A was measured by HPLC. The data thus obtained are set forth in Table 9 below, and plotted in FIG. 22.
# [2] = Intrinsic dissolution rate (Intrinsic Dissolution Tester, Van Kel Type); format: physicochemical; details: pH 3 and pH 6, 37° C.
# Protocol: In addition to the above data, the intrinsic dissolution rates (IDR's) for the new pseudopolymorph of the invention and the commercial dihydrate, at pH 3 and pH 6 and 37° C., were determined by Intrinsic Dissolution Tester, Van Kel Type.
# in vivo = details: rat, 50 mg/kg
# Text: 32 animals were studied using a cross-over experimental design experiment. A non-compartmental analysis was used to determine the concentrations of the respective materials in whole blood and plasma as a function of time.
# [3] = Similarity factors (f2) calculated for the dissolution profiles; format: physicochemical
# Protocol: In order to further assess the data from Table 6, similarity factors (f2) were calculated according to the method described in Note for Guidance on the Investigation of Bioavailability and Bioequivalence (EMEA, December 1998, London) for the dissolution profiles of the two species (9-deoxo-9a-aza-9a-methyl-9a-homoerythromycin A, pseudopolymorph Ia of the present invention, and commercial 9-deoxo-9a-aza-9a-methyl-9a-homoerythromycin A dihydrate).
# [4] = Solid state stability by X-ray powder diffraction at varied humidity and temperature; format: physicochemical; details: 5% RH to 75% RH; 30° C. to 75° C.
# Protocol: The solid state stability of the 9-deoxo-9a-aza-9a-methyl-9a-homoerythromycin A pseudopolymorph Ia (x=1, y=0) was determined by measuring the solid state x-ray powder diffraction pattern for this material at four different percent relative humidities (% RH), ranging from 5% RH to 75% RH, and at five different temperatures, increasing from 30° C. to 75° C. using Philips X'PertPRO powder X-ray diffractometer equipped with Anton Paar TTK-100 humidity camera used for non-ambient data collection.
structure (smiles),measurement,setting,value
"CC[C@H]1OC(=O)[C@H](C)[C@@H](O[C@H]2C[C@@](C)(OC)[C@@H](O)[C@H](C)O2)C(C)[C@@H](O[C@@H]2O[C@H](C)CC(N(C)C)[C@H]2O)[C@](C)(O)C[C@@H](C)CN(C)[C@H](C)[C@@H](O)[C@]1(C)O (stereo partly shown) [9-deoxo-9a-aza-9a-methyl-9a-homoerythromycin A dihydrate, reference compound]",Percent dissolved,"[1]; pH 3, 37° C., 5 minutes",3.9%
same,Percent dissolved,"[1]; pH 3, 37° C., 10 minutes",8.1%
same,Percent dissolved,"[1]; pH 3, 37° C., 20 minutes",14.6%
same,Percent dissolved,"[1]; pH 3, 37° C., 45 minutes",26.7%
same,Percent dissolved,"[1]; pH 3, 37° C., 60 minutes",33.3%
same,Percent dissolved,"[1]; pH 3, 37° C., 90 minutes",39.1%
same,Percent dissolved,"[1]; pH 6, 37° C., 5 minutes",14.5%
same,Percent dissolved,"[1]; pH 6, 37° C., 10 minutes",27.3%
same,Percent dissolved,"[1]; pH 6, 37° C., 20 minutes",44.2%
same,Percent dissolved,"[1]; pH 6, 37° C., 45 minutes",69.1%
same,Percent dissolved,"[1]; pH 6, 37° C., 60 minutes",73.7%
same,Percent dissolved,"[1]; pH 6, 37° C., 90 minutes",75.0%
same,Intrinsic dissolution rate (IDR),[2],about 1.8 mg min^−1 cm^−2
same,AUC(0-48),in vivo,31696.6 nghr/ml
same,Tmax,in vivo; po,2 h
"CC[C@H]1OC(=O)[C@H](C)[C@@H](O[C@H]2C[C@@](C)(OC)[C@@H](O)[C@H](C)O2)[C@H](C)[C@@H](O[C@@H]2O[C@H](C)C[C@H](N(C)C)[C@H]2O)[C@](C)(O)C[C@@H](C)CN(C)[C@H](C)[C@@H](O)[C@]1(C)O [Pseudopolymorph Ia, 9-deoxo-9a-aza-9a-methyl-9a-homoerythromycin A]",Percent dissolved,"[1]; pH 3, 37° C., 5 minutes, listed as Ia (Example 19, Batch 1)",25.1%
same,Percent dissolved,"[1]; pH 3, 37° C., 5 minutes, listed as Ia (Example 19, Batch 3)",21.1%
same,Percent dissolved,"[1]; pH 3, 37° C., 5 minutes, listed as Ia (Example 19 Batch 2)",18.5%
same,Percent dissolved,"[1]; pH 3, 37° C., 10 minutes, listed as Ia (Example 19, Batch 1)",37.1%
same,Percent dissolved,"[1]; pH 3, 37° C., 10 minutes, listed as Ia (Example 19, Batch 3)",32.4%
same,Percent dissolved,"[1]; pH 3, 37° C., 10 minutes, listed as Ia (Example 19 Batch 2)",30.7%
same,Percent dissolved,"[1]; pH 3, 37° C., 20 minutes, listed as Ia (Example 19, Batch 1)",45.8%
same,Percent dissolved,"[1]; pH 3, 37° C., 20 minutes, listed as Ia (Example 19, Batch 3)",43.3%
same,Percent dissolved,"[1]; pH 3, 37° C., 20 minutes, listed as Ia (Example 19 Batch 2)",45.1%
same,Percent dissolved,"[1]; pH 3, 37° C., 45 minutes, listed as Ia (Example 19, Batch 1)",55.5%
same,Percent dissolved,"[1]; pH 3, 37° C., 45 minutes, listed as Ia (Example 19, Batch 3)",56%
same,Percent dissolved,"[1]; pH 3, 37° C., 45 minutes, listed as Ia (Example 19 Batch 2)",60.9%
same,Percent dissolved,"[1]; pH 3, 37° C., 60 minutes, listed as Ia (Example 19, Batch 1)",58.3%
same,Percent dissolved,"[1]; pH 3, 37° C., 60 minutes, listed as Ia (Example 19, Batch 3)",61.1%
same,Percent dissolved,"[1]; pH 3, 37° C., 60 minutes, listed as Ia (Example 19 Batch 2)",64.8%
same,Percent dissolved,"[1]; pH 3, 37° C., 90 minutes, listed as Ia (Example 19, Batch 1)",62.9%
same,Percent dissolved,"[1]; pH 3, 37° C., 90 minutes, listed as Ia (Example 19, Batch 3)",64.7%
same,Percent dissolved,"[1]; pH 3, 37° C., 90 minutes, listed as Ia (Example 19 Batch 2)",70%
same,Percent dissolved,"[1]; pH 6, 37° C., 5 minutes, listed as Ia (Example 19, Batch 1)",67.0%
same,Percent dissolved,"[1]; pH 6, 37° C., 5 minutes, listed as Ia (Example 19, Batch 3)",70.2%
same,Percent dissolved,"[1]; pH 6, 37° C., 5 minutes, listed as Ia (Example 19 Batch 2)",71.7%
same,Percent dissolved,"[1]; pH 6, 37° C., 10 minutes, listed as Ia (Example 19, Batch 1)",73.2%
same,Percent dissolved,"[1]; pH 6, 37° C., 10 minutes, listed as Ia (Example 19, Batch 3)",77.3%
same,Percent dissolved,"[1]; pH 6, 37° C., 10 minutes, listed as Ia (Example 19 Batch 2)",81.4%
same,Percent dissolved,"[1]; pH 6, 37° C., 20 minutes, listed as Ia (Example 19, Batch 1)",76.7%
same,Percent dissolved,"[1]; pH 6, 37° C., 20 minutes, listed as Ia (Example 19, Batch 3)",77%
same,Percent dissolved,"[1]; pH 6, 37° C., 20 minutes, listed as Ia (Example 19 Batch 2)",81.6%
same,Percent dissolved,"[1]; pH 6, 37° C., 45 minutes, listed as Ia (Example 19, Batch 1)",76.7%
same,Percent dissolved,"[1]; pH 6, 37° C., 45 minutes, listed as Ia (Example 19, Batch 3)",77.6%
same,Percent dissolved,"[1]; pH 6, 37° C., 45 minutes, listed as Ia (Example 19 Batch 2)",80.4%
same,Percent dissolved,"[1]; pH 6, 37° C., 60 minutes, listed as Ia (Example 19, Batch 1)",74.5%
same,Percent dissolved,"[1]; pH 6, 37° C., 60 minutes, listed as Ia (Example 19, Batch 3)",78%
same,Percent dissolved,"[1]; pH 6, 37° C., 60 minutes, listed as Ia (Example 19 Batch 2)",79.9%
same,Percent dissolved,"[1]; pH 6, 37° C., 90 minutes, listed as Ia (Example 19, Batch 1)",75.8%
same,Percent dissolved,"[1]; pH 6, 37° C., 90 minutes, listed as Ia (Example 19, Batch 3)",79.2%
same,Percent dissolved,"[1]; pH 6, 37° C., 90 minutes, listed as Ia (Example 19 Batch 2)",80%
same,Intrinsic dissolution rate (IDR),[2],2.5-2.8 mg min^−1 cm^−2
same,IDR higher than the IDR of the dihydrate,[2]; relative to dihydrate,40 to 50%
same,Similarity factor (f2),"[3]; Batch 1 vs. Batch 2 of Example 19, pH = 3",61.3
same,Similarity factor (f2),"[3]; Batch 1 vs. Batch 2 of Example 19, pH = 6",63.1
same,Similarity factor (f2),"[3]; Batch 1 vs. Batch 3 of Example 19, pH = 3",74.7
same,Similarity factor (f2),"[3]; Batch 1 vs. Batch 3 of Example 19, pH = 6",75.4
same,Similarity factor (f2),"[3]; Batch 2 vs. Batch 3 of Example 19, pH = 3",71.3
same,Similarity factor (f2),"[3]; Batch 2 vs. Batch 3 of Example 19, pH = 6",75.3
same,Similarity factor (f2),"[3]; Dihydrate vs. Batch 1 of Example 19, pH = 3",28.6
same,Similarity factor (f2),"[3]; Dihydrate vs. Batch 1 of Example 19, pH = 6",25
same,Similarity factor (f2),"[3]; Dihydrate vs. Batch 2 of Example 19, pH = 3",27.5
same,Similarity factor (f2),"[3]; Dihydrate vs. Batch 2 of Example 19, pH = 6",22.2
same,Similarity factor (f2),"[3]; Dihydrate vs. Batch 3 of Example 19, pH = 3",29.4
same,Similarity factor (f2),"[3]; Dihydrate vs. Batch 3 of Example 19, pH = 6",23.7
same,Solid state stability (phase transitions by x-ray powder diffraction),[4],no phase-transitions occur
same,AUC(0-12) higher relative to the commercial dihydrate,in vivo,approximately 20%
same,AUC(0-48),in vivo,35659.0 nghr/ml
same,Tmax,in vivo,2 h
"CC[C@H]1OC(=O)[C@H](C)[C@@H](O[C@H]2C[C@@](C)(OC)[C@@H](O)[C@H](C)O2)[C@H](C)[C@@H](O[C@@H]2O[C@H](C)C[C@H](N(C)C)[C@H]2O)[C@](C)(O)C[C@@H](C)CN(C)[C@H](C)[C@@H](O)[C@]1(C)O [Pseudopolymorph Ik, 9-deoxo-9a-aza-9a-methyl-9a-homoerythromycin A]",Percent dissolved,"[1]; pH 6, 37° C., 5 minutes, listed as Ik (Example 6)",99.8%
same,Percent dissolved,"[1]; pH 6, 37° C., 10 minutes, listed as Ik (Example 6)",99.9%
same,Percent dissolved,"[1]; pH 6, 37° C., 20 minutes, listed as Ik (Example 6)",97.1%
same,Percent dissolved,"[1]; pH 6, 37° C., 45 minutes, listed as Ik (Example 6)",97.6%
